Converted amounts (≈) assume the structure as drawn.
Experiments:
Type in all cases: functional
Candida albicans = assay: Antifungal activity against Candida albicans ATCC3147 assessed as reduction in fungal growth measured after 24 hrs by CLSI protocol based method
Nakaseomyces glabratus = assay: Antifungal activity against Candida glabrata ATCC2001 assessed as reduction in fungal growth measured after 24 hrs by CLSI protocol based method
[Candida] auris = Antifungal activity against Candida auris MYA-500 assessed as reduction in fungal growth measured after 24 hrs by CLSI protocol based method; details: Candidozyma auris

CCCCCCCCCCCCNC(=O)C[C@@H]1NC(=O)CNC(=O)[C@@H](CCN)NC(=O)[C@@H]([C@H](O)c2ccc(O)cc2)NC(=O)[C@H](CO)NC(=O)C[C@@H](C[C@@H](O)[C@@H](O)[C@@H](CCCCCCCCCCC)O[C@H]2OC[C@@H](O)[C@H](O)[C@H]2O)NC(=O)[C@H]([C@H](O)C(N)=O)NC(=O)[C@@H](CO)NC1=O
MIC (Candida albicans): > 8 µg/mL | MIC (Nakaseomyces glabratus): 8 µg/mL (≈ 5.78 µM)

CCCCCCCCCCC[C@@H](O[C@H]1OC[C@@H](O)[C@H](O)[C@H]1O)[C@H](O)[C@H](O)C[C@@H]1CC(=O)N[C@@H](CO)C(=O)N[C@H]([C@H](O)c2ccc(O)cc2)C(=O)N[C@H](CCN)C(=O)NCC(=O)N[C@@H](CC(=O)N(C)C)C(=O)N[C@H](CO)C(=O)N[C@@H]([C@H](O)C(N)=O)C(=O)N1
MIC (Candida albicans): 1 µg/mL (≈ 0.804 µM) | MIC (Nakaseomyces glabratus): 0.5 µg/mL (≈ 0.402 µM) | MIC ([Candida] auris): 0.5 µg/mL (≈ 0.402 µM)

C#CCCNC(=O)C[C@@H]1NC(=O)CNC(=O)[C@@H](CCN)NC(=O)[C@@H]([C@H](O)c2ccc(O)cc2)NC(=O)[C@H](CO)NC(=O)C[C@@H](C[C@@H](O)[C@@H](O)[C@@H](CCCCCCCCCCC)O[C@H]2OC[C@@H](O)[C@H](O)[C@H]2O)NC(=O)[C@H](CC(N)=O)NC(=O)[C@@H](CO)NC1=O
MIC (Candida albicans): 0.5 µg/mL (≈ 0.399 µM) | MIC (Nakaseomyces glabratus): 0.5 µg/mL (≈ 0.399 µM)

CCCCCCCCCCC[C@@H](O[C@H]1OC[C@@H](O)[C@H](O)[C@H]1O)[C@H](O)[C@H](O)C[C@@H]1CC(=O)N[C@@H](CO)C(=O)N[C@H]([C@H](O)c2ccc(O)cc2)C(=O)N[C@H](CCN)C(=O)NCC(=O)N[C@@H](CC(=O)NCC)C(=O)N[C@H](CO)C(=O)N[C@@H](CC(N)=O)C(=O)N1
MIC (Candida albicans): 2 µg/mL (≈ 1.63 µM) | MIC (Nakaseomyces glabratus): 2 µg/mL (≈ 1.63 µM) | MIC ([Candida] auris): 1 µg/mL (≈ 0.814 µM)

CCCCCCCCCCC[C@@H](O[C@H]1OC[C@@H](O)[C@H](O)[C@H]1O)[C@H](O)[C@H](O)C[C@@H]1CC(=O)N[C@@H](CO)C(=O)N[C@H]([C@H](O)c2ccc(O)cc2)C(=O)N[C@H](CCN)C(=O)NCC(=O)N[C@@H](CC(N)=O)C(=O)N[C@H](CO)C(=O)N[C@@H](CC(N)=O)C(=O)N1
MIC (Candida albicans): 0.125 µg/mL (≈ 0.104 µM) | MIC (Nakaseomyces glabratus): 0.25 µg/mL (≈ 0.208 µM) | MIC ([Candida] auris): 0.25 µg/mL (≈ 0.208 µM)

CCCCCCCCCCC[C@@H](O[C@H]1OC[C@@H](O)[C@H](O)[C@H]1O)[C@H](O)[C@H](O)C[C@@H]1CC(=O)N[C@@H](CO)C(=O)N[C@H]([C@H](O)c2ccc(O)cc2)C(=O)N[C@H](CCN)C(=O)NCC(=O)N[C@@H](CC(=O)O)C(=O)N[C@H](CO)C(=O)N[C@@H](CC(N)=O)C(=O)N1
MIC (Candida albicans): 2 µg/mL (≈ 1.66 µM) | MIC (Nakaseomyces glabratus): 2 µg/mL (≈ 1.66 µM) | MIC ([Candida] auris): 1 µg/mL (≈ 0.832 µM)

CCCCCCCCCCC[C@@H](O[C@H]1OC[C@@H](O)[C@H](O)[C@H]1O)[C@H](O)[C@H](O)C[C@@H]1CC(=O)N[C@@H](CO)C(=O)N[C@H]([C@H](O)c2ccc(O)cc2)C(=O)N[C@H](CCN)C(=O)NCC(=O)N[C@@H](CC(=O)NC)C(=O)N[C@H](CO)C(=O)N[C@@H]([C@H](O)C(N)=O)C(=O)N1
MIC (Candida albicans): 0.5 µg/mL (≈ 0.406 µM) | MIC (Nakaseomyces glabratus): 0.5 µg/mL (≈ 0.406 µM) | MIC ([Candida] auris): 0.5 µg/mL (≈ 0.406 µM)

CCCCCCCCCCCCNC(=O)C[C@@H]1NC(=O)CNC(=O)[C@@H](CCN)NC(=O)[C@@H]([C@H](O)c2ccc(O)cc2)NC(=O)[C@H](CO)NC(=O)C[C@@H](C[C@@H](O)[C@@H](O)[C@@H](CCCCCCCCCCC)O[C@H]2OC[C@@H](O)[C@H](O)[C@H]2O)NC(=O)[C@H](CC(N)=O)NC(=O)[C@@H](CO)NC1=O
MIC (Candida albicans): > 8 µg/mL | MIC (Nakaseomyces glabratus): 8 µg/mL (≈ 5.85 µM)

C#CCCNC(=O)C[C@@H]1NC(=O)CNC(=O)[C@@H](CCN)NC(=O)[C@@H]([C@H](O)c2ccc(O)cc2)NC(=O)[C@H](CO)NC(=O)C[C@@H](C[C@@H](O)[C@@H](O)[C@@H](CCCCCCCCCCC)O[C@H]2OC[C@@H](O)[C@H](O)[C@H]2O)NC(=O)[C@H]([C@H](O)C(N)=O)NC(=O)[C@@H](CO)NC1=O
MIC (Candida albicans): 0.5 µg/mL (≈ 0.394 µM) | MIC (Nakaseomyces glabratus): 0.5 µg/mL (≈ 0.394 µM)

CCCCCCCCCCC[C@@H](O[C@H]1OC[C@@H](O)[C@H](O)[C@H]1O)[C@H](O)[C@H](O)C[C@@H]1CC(=O)N[C@@H](CO)C(=O)N[C@H]([C@H](O)c2ccc(O)cc2)C(=O)N[C@H](CCN)C(=O)NCC(=O)N[C@@H](CC(=O)NCCC)C(=O)N[C@H](CO)C(=O)N[C@@H]([C@H](O)C(N)=O)C(=O)N1
MIC (Candida albicans): 0.5 µg/mL (≈ 0.397 µM) | MIC (Nakaseomyces glabratus): 0.5 µg/mL (≈ 0.397 µM) | MIC ([Candida] auris): 1 µg/mL (≈ 0.795 µM)

CCCCCCCCCCC[C@@H](O[C@H]1OC[C@@H](O)[C@H](O)[C@H]1O)[C@H](O)[C@H](O)C[C@@H]1CC(=O)N[C@@H](CO)C(=O)N[C@H]([C@H](O)c2ccc(O)cc2)C(=O)N[C@H](CCN)C(=O)NCC(=O)N[C@@H](CC(N)=O)C(=O)N[C@H](CO)C(=O)N[C@@H]([C@H](O)C(N)=O)C(=O)N1
MIC (Candida albicans): 0.125 µg/mL (≈ 0.103 µM) | MIC (Nakaseomyces glabratus): 0.25 µg/mL (≈ 0.206 µM) | MIC ([Candida] auris): 0.25 µg/mL (≈ 0.206 µM)

CCCCCCCCCCC[C@@H](O[C@H]1OC[C@@H](O)[C@H](O)[C@H]1O)[C@H](O)[C@H](O)C[C@@H]1CC(=O)N[C@@H](CO)C(=O)N[C@H]([C@H](O)c2ccc(O)cc2)C(=O)N[C@H](CCN)C(=O)NCC(=O)N[C@@H](CC(=O)O)C(=O)N[C@H](CO)C(=O)N[C@@H]([C@H](O)C(N)=O)C(=O)N1
MIC (Candida albicans): 2 µg/mL (≈ 1.64 µM) | MIC (Nakaseomyces glabratus): 2 µg/mL (≈ 1.64 µM) | MIC ([Candida] auris): 1 µg/mL (≈ 0.821 µM)

CCCCCCCCCCC[C@@H](O[C@H]1OC[C@@H](O)[C@H](O)[C@H]1O)[C@H](O)[C@H](O)C[C@@H]1CC(=O)N[C@@H](CO)C(=O)N[C@H]([C@H](O)c2ccc(O)cc2)C(=O)N[C@H](CCN)C(=O)NCC(=O)N[C@@H](CC(=O)NCC)C(=O)N[C@H](CO)C(=O)N[C@@H]([C@H](O)C(N)=O)C(=O)N1
MIC (Candida albicans): 2 µg/mL (≈ 1.61 µM) | MIC (Nakaseomyces glabratus): 2 µg/mL (≈ 1.61 µM) | MIC ([Candida] auris): 1 µg/mL (≈ 0.804 µM)

CCCCCCCCCCC[C@@H](O[C@H]1OC[C@@H](O)[C@H](O)[C@H]1O)[C@H](O)[C@H](O)C[C@@H]1CC(=O)N[C@@H](CO)C(=O)N[C@H]([C@H](O)c2ccc(O)cc2)C(=O)N[C@H](CCN)C(=O)NCC(=O)N[C@@H](CC(=O)N(C)C)C(=O)N[C@H](CO)C(=O)N[C@@H](CC(N)=O)C(=O)N1
MIC (Candida albicans): 1 µg/mL (≈ 0.814 µM) | MIC (Nakaseomyces glabratus): 0.5 µg/mL (≈ 0.407 µM) | MIC ([Candida] auris): 0.5 µg/mL (≈ 0.407 µM)

CCCCCCCCCCC[C@@H](O[C@H]1OC[C@@H](O)[C@H](O)[C@H]1O)[C@H](O)[C@H](O)C[C@@H]1CC(=O)N[C@@H](CO)C(=O)N[C@H]([C@H](O)c2ccc(O)cc2)C(=O)N[C@H](CCN)C(=O)NCC(=O)N[C@@H](CC(=O)NC)C(=O)N[C@H](CO)C(=O)N[C@@H](CC(N)=O)C(=O)N1
MIC (Candida albicans): 0.5 µg/mL (≈ 0.412 µM) | MIC (Nakaseomyces glabratus): 0.5 µg/mL (≈ 0.412 µM) | MIC ([Candida] auris): 0.5 µg/mL (≈ 0.412 µM)

CCCCCCCCCCC[C@@H](O[C@H]1OC[C@@H](O)[C@H](O)[C@H]1O)[C@H](O)[C@H](O)C[C@@H]1CC(=O)N[C@@H](CO)C(=O)N[C@H]([C@H](O)c2ccc(O)cc2)C(=O)N[C@H](CCN)C(=O)NCC(=O)N[C@@H](CC(=O)NCCC)C(=O)N[C@H](CO)C(=O)N[C@@H](CC(N)=O)C(=O)N1
MIC (Candida albicans): 0.5 µg/mL (≈ 0.402 µM) | MIC (Nakaseomyces glabratus): 0.5 µg/mL (≈ 0.402 µM) | MIC ([Candida] auris): 1 µg/mL (≈ 0.805 µM)

Source: ChEMBL document CHEMBL5357035, “Previously Uncharacterized Variants, OCF-E-OCF-J, of the Antifungal Occidiofungin Produced by Burkholderia contaminans MS14” (2024)
